Measurements as given in patent publication US10913983B2, “Sensitivity markers and uses for CDK7 inhibitors in breast cancers” (UNIVERSITY OF SOUTH CAROLINA, priority 2017, dated 2021).
Like-named read-outs stand apart in the source and are kept apart here.

Experiments:
BT474 = assay: Cell proliferation MTT assay; assay type: cell-based
Protocol: (§1) Cells were seeded in 12-well plates at densities ranging from 10000-30000 cells/well and after 24 hours cells were treated with 10, 40 and 100 nM THZ1 in triplicate. After 7 days the cells were imaged using Zeiss Axiovert 200 microscope using a 20× objective lens. Additionally, cells were plated in 96-well plates at a density of 2000 cells/well and after 24 hours treated with 0-10 μM THZ1. After 2 and 7 days the growth of the cells was measured by MTT assay.
(§2) All results were presented as mean±standard deviation of 4-8 parallel assessments. Similar results were obtained from a minimum of two independent experiments. […] Densitometry was performed on duplicate immunoblots using ImageLab software (Biorad) and normalized to tubulin loading controls and then correlated with the THZ1 IC50 values of each cell line. Statistical analyses were performed using SPSS 18.0 (SPSS Inc). Bi-variant scatter graphs and Spearman rank analyses were performed to evaluate associations between protein levels, mRNA and response to inhibition. IC50 values were calculated for MTT assays using CompuSyn software.

BT549 = assay: Cell proliferation MTT assay; assay type: cell-based
Protocol: as §1, §2

HCC1937 = assay: Cell proliferation MTT assay; assay type: cell-based
Protocol: as §1, §2

HCC1954 = assay: Cell proliferation MTT assay; assay type: cell-based
Protocol: as §1, §2

JIMT-1 = assay: Cell proliferation MTT assay; assay type: cell-based; conditions: for IC50: MTT
Protocol: as §1, §2

MCF7 = assay: Cell proliferation MTT assay; assay type: cell-based
Protocol: as §1, §2

MDA-MB-361 = assay: Cell proliferation MTT assay; assay type: cell-based
Protocol: as §1, §2

MDA-MB-453 = assay: Cell proliferation MTT assay; assay type: cell-based
Protocol: as §1, §2

SKBR3 = assay: Cell proliferation MTT assay; assay type: cell-based
Protocol: as §1, §2

T47D = assay: Cell proliferation MTT assay; assay type: cell-based
Protocol: as §1, §2

ZR-75-1 = assay: Cell proliferation MTT assay; assay type: cell-based
Protocol: as §1, §2

[1] = tested on: phosphorylation of RNA Pol II at S2, S5 and S7; assay: Immunoblotting of RNA Pol II phosphorylation; assay type: cell-based; conditions: increasing concentrations (10-6250 nM), 4 hours, multiple breast cancer cell lines
Protocol: (§3) Cells were plated in 100 mm^2 petri dishes at a density of 1×10^6 cells/plate and allowed to grow for 3-4 days until the cells reached 80% confluency. Cells were treated with THZ1 or with vehicle control (DMSO) prior to lysing cells in RIPA buffer containing protease inhibitor cocktail and PMSF. Protein concentration was determined using BCA assay (Pierce). All lysates were prepared in biological duplicates. Protein (50 μg) was resolved on 4-20% Express-Plus PAGE gels in Tris-MOPS (SDS) running buffer (GenScript), transferred to PVDF membranes and incubated at 4° C. overnight with primary antibodies: CDK7 (sc-529, SantaCruz), ER (sc-543, SantaCruz), HER2 (#4290, Cell Signaling Technology), RNA-Pol II-S2P (C152000005, Diagenode), RNA-Pol II-S5P C152000007, RNA-Pol II-S7P (04-1570, Millipore) and RNA-Pol II (sc-900X, SantaCruz), CITED2 (MAB5005, R+D Systems), Tubulin (T-9026, Sigma), followed by anti-rabbit (#31460, ThermoFisher Scientific), anti-mouse (31430, ThermoFisher Scientific) or anti-rat (AP136P, Millipore) secondary antibodies. Bands were visualized with Western Lighting Plus ECL detection reagent (Perkin Elmer) using ChemiDoc Touch™ (BioRad). Images were analyzed and densitometry performed using ImageLab software (Biorad).
The effects of increasing concentrations of THZ1 on the phosphorylation of RNA Pol II at S2, S5 and S7 was tested across multiple breast cancer cell lines. […]

[2] = tested on: PARP cleavage in MDA-MB-231, SKBR3 and JIMT-1 cells; assay: Immunoblotting for PARP cleavage; assay type: cell-based; conditions: 250 nM, 24 and 48 hours
Protocol: as §3

[3] = tested on: serum starved SKBR3 cells; assay: EGF stimulation; assay type: cell-based; conditions: 100 ng/ml EGF with 250 nM THZ1, 6 hours
Protocol: SKBR3 cells were seeded into duplicate 6-well plates and allowed to grow until 80% confluent. The cells were then washed with PBS and the media was replaced with serum-free media overnight. After serum starvation the cells were treated with 100 ng/ml EGF with or without 250 nM THZ1 for 6 hours then lysates were collected for both RNA and protein analysis.

MDA-MB-468 cells = conditions: fold change in gene expression, 250 nM THZ1; cited from earlier work

Structure (SMILES): CN(C)C/C=C/C(=O)Nc1ccc(C(=O)Nc2cccc(Nc3ncc(Cl)c(-c4c[nH]c5ccccc45)n3)c2)cc1 [THZ1]
- IC50 (BT474; BT474, 2 days, read-out: 2 day IC50): 490 nM
- IC50 (BT474; BT474, 7 days, read-out: 7 day IC50): 27 nM
- IC50 (BT549; BT549, 2 days, read-out: 2 day IC50): 17 nM
- IC50 (BT549; BT549, 7 days, read-out: 7 day IC50): 8 nM
- IC50 (HCC1937; HCC1937, 2 days, read-out: 2 day IC50): 94 nM
- IC50 (HCC1937; HCC1937, 7 days, read-out: 7 day IC50): 24 nM
- IC50 (HCC1954; HCC1954, 2 days, read-out: 2 day IC50): 158 nM
- IC50 (HCC1954; HCC1954, 7 days, read-out: 7 day IC50): 36 nM
- IC50 (JIMT-1; JIMT-1, 2 days, read-out: 2 day IC50): 289 nM
- IC50 (JIMT-1; JIMT-1, 7 days, read-out: 7 day IC50): 87 nM
- response to low nanomolar concentrations (JIMT-1; JIMT-1, <100 nM, 7 days of treatment): lack of significant response
- IC50 (MCF7; MCF7, 2 days, read-out: 2 day IC50): 32 nM
- IC50 (MCF7; MCF7, 7 days, read-out: 7 day IC50): 59 nM
- IC50 (MDA-MB-361; MDA-MB-361, 2 days, read-out: 2 day IC50): 133 nM
- IC50 (MDA-MB-361; MDA-MB-361, 7 days, read-out: 7 day IC50): 27 nM
- IC50 (MDA-MB-453; MDA-MB-453, 2 days, read-out: 2 day IC50): 133 nM
- IC50 (MDA-MB-453; MDA-MB-453, 7 days, read-out: 7 day IC50): 12 nM
- IC50 (SKBR3; SKBR3, 2 days, read-out: 2 day IC50): 23 nM
- IC50 (SKBR3; SKBR3, 7 days, read-out: 7 day IC50): 9 nM
- IC50 (T47D; 2 days, read-out: 2 day IC50): 89 nM
- IC50 (T47D; 7 days, read-out: 7 day IC50): 14 nM
- IC50 (ZR-75-1; ZR-75-1, 2 days, read-out: 2 day IC50): 286 nM
- IC50 (ZR-75-1; ZR-75-1, 7 days, read-out: 7 day IC50): 50 nM
- phosphorylation of RNA Pol II at S2, S5 and S7 [1]: inhibited the phosphorylation of all three sites in a dose dependent manner
- PARP cleavage [2]: induced PARP cleavage only in the SKBR3 cells
- EGF induction of CITED2 expression (mRNA) [3]: prevented
- EGF induction of mRNA expression of EGFR, MYC, CDKN1B, PLK2 and FOXC1 [3]: prevented
- EGF-induced increase of CITED2 protein [3]: prevented
- BAMBI 468 FC (MDA-MB-468 cells): −3.8
- CDKN1B 468 FC (MDA-MB-468 cells): −4.11
- CITED2 468 FC (MDA-MB-468 cells): −4.53
- CYR61 468 FC (MDA-MB-468 cells): −4.82
- DKK1 468 FC (MDA-MB-468 cells): −4.7
- E2F8 468 FC (MDA-MB-468 cells): −4.01
- ELF3 468 FC (MDA-MB-468 cells): −3.88
- FADD 468 FC (MDA-MB-468 cells): −3.93
- FBXO5 468 FC (MDA-MB-468 cells): −4.19
- MARS2 468 FC (MDA-MB-468 cells): −4.04
- MOCS3 468 FC (MDA-MB-468 cells): −3.84
- MYC 468 FC (MDA-MB-468 cells): −4.64
- NEDD9 468 FC (MDA-MB-468 cells): −4.03
- PHLDA1 468 FC (MDA-MB-468 cells): −3.71
- PIM3 468 FC (MDA-MB-468 cells): −4.05
- PLK2 468 FC (MDA-MB-468 cells): −3.99
- TRIB1 468 FC (MDA-MB-468 cells): −3.69
- WEE1 468 FC (MDA-MB-468 cells): −3.69
- ZNF217 468 FC (MDA-MB-468 cells): −3.77
- ZNF627 468 FC (MDA-MB-468 cells): −3.68
